Experimental data reported in ChEMBL document CHEMBL5465560, “Selectivity Literature for EUbOPEN Chemogenomic Library” (2024).

Experiments:
[1] = biological target: T1, Serine/threonine-protein kinase ULK1 (Homo sapiens) (UniProt O75385); experiment: Selectivity interaction (KinomeScan (DiscoverX)) EUB0001049a ULK1; conditions: at 1 µM
T1 sequence (whole entry): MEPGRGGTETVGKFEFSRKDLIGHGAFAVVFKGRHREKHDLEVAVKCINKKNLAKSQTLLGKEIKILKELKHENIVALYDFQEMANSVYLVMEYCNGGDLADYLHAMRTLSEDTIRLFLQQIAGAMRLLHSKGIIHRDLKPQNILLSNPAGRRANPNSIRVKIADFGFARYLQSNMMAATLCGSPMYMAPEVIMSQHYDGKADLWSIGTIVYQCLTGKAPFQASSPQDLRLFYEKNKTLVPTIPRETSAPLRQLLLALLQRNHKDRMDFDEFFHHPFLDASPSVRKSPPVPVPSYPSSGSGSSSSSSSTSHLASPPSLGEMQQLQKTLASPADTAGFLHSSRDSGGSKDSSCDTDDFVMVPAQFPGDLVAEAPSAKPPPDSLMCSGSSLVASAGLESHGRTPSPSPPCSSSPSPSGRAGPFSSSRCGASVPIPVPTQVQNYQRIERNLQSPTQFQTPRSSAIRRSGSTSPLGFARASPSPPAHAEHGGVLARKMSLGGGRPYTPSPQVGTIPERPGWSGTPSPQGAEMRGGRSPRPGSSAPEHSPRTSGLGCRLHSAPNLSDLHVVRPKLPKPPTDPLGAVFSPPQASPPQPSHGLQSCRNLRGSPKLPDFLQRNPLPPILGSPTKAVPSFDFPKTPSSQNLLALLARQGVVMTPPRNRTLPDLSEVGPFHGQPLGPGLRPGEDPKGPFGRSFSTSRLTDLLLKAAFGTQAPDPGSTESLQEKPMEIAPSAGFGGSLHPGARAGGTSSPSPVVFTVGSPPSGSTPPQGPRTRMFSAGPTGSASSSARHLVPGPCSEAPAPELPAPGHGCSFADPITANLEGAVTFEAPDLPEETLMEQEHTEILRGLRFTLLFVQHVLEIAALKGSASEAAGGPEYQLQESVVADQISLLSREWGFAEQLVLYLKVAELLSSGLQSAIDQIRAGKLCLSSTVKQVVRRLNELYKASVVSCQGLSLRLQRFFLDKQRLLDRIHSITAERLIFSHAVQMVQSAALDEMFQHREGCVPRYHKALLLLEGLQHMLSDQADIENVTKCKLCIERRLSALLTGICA

[2] = biological target: T2, cGMP-dependent protein kinase 1 (Homo sapiens) (UniProt Q13976); experiment: Selectivity interaction (KinomeScan (DiscoverX)) EUB0000666a PRKG1; conditions: at 10 µM
T2 sequence (whole entry): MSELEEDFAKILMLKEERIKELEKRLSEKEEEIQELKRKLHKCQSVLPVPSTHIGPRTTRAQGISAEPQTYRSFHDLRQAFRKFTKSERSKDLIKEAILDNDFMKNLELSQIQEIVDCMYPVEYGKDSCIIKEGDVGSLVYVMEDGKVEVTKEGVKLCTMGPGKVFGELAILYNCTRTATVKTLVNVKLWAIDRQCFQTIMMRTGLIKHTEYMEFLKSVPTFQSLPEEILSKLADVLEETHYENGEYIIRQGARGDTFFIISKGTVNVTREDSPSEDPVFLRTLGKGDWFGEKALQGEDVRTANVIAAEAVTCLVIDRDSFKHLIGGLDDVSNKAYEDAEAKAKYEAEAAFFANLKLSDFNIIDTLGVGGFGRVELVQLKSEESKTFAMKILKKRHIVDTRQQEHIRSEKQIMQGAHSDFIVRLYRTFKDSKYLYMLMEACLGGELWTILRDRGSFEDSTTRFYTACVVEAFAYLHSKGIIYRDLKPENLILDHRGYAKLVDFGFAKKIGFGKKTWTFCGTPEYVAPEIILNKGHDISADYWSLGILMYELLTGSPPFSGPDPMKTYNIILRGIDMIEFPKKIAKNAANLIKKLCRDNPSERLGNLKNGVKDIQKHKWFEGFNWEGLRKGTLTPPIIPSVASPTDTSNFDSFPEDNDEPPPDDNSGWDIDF

[3] = biological target: T1, Serine/threonine-protein kinase ULK1 (Homo sapiens); experiment: Selectivity interaction (KinomeScan (DiscoverX)) EUB0000666a ULK1; conditions: at 10 µM
[4] = biological target: T3, MAP/microtubule affinity-regulating kinase 4 (Homo sapiens) (UniProt Q96L34); experiment: Selectivity interaction (KinomeScan (DiscoverX)) EUB0001079a MARK4; conditions: at 1 µM
T3 sequence (whole entry): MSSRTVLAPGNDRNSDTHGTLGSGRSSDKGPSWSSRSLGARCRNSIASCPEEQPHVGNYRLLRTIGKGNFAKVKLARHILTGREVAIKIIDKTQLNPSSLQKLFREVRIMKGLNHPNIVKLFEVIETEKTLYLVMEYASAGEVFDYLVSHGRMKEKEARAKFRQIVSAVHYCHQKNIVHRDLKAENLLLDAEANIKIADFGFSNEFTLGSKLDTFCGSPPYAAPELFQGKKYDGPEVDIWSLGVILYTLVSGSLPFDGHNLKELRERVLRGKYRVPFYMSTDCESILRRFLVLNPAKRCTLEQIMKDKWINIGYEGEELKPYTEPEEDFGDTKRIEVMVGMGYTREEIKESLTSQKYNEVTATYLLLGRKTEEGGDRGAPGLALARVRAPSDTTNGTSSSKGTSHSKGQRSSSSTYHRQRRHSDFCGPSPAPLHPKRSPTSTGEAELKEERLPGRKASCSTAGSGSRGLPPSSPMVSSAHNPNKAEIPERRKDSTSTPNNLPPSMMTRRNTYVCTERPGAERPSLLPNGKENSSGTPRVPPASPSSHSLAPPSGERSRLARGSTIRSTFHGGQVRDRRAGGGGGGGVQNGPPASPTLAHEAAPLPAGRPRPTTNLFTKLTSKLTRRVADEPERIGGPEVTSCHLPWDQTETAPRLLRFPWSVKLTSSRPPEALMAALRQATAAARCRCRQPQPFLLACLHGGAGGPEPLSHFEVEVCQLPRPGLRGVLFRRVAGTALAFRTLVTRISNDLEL

[5] = biological target: Receptor tyrosine-protein kinase erbB-4 (Homo sapiens, UniProt Q15303); experiment: Selectivity interaction (KinomeScan (DiscoverX)) EUB0001079a ERBB4; conditions: at 1 µM
[6] = biological target: Epidermal growth factor receptor (Homo sapiens, UniProt P00533); experiment: Selectivity interaction (Kinase panel (33PanQinase(R) Activity Assay)) EUB0000877a EGFR
[7] = biological target: Tyrosine-protein kinase Yes (Homo sapiens) (UniProt P07947); conditions: at 10 µM
[8] = biological target: Fibroblast growth factor receptor 3 (Homo sapiens, UniProt P22607); experiment: Selectivity interaction (KinomeScan (DiscoverX)) EUB0000092b FGFR3; conditions: at 10 µM
[9] = test system: Tyrosine-protein kinase ABL1 (Homo sapiens), P00519 [Q252H]; experiment: Selectivity interaction (KinomeScan (DiscoverX)) EUB0000655a ABL1; conditions: at 10 µM
[10] = biological target: Receptor-type tyrosine-protein kinase FLT3 (Homo sapiens) (UniProt P36888); experiment: Selectivity interaction (KinomeScan (DiscoverX)) EUB0000695a FLT3; conditions: at 100 nM
Sequence of Receptor-type tyrosine-protein kinase FLT3 (Homo sapiens) (P36888 whole entry): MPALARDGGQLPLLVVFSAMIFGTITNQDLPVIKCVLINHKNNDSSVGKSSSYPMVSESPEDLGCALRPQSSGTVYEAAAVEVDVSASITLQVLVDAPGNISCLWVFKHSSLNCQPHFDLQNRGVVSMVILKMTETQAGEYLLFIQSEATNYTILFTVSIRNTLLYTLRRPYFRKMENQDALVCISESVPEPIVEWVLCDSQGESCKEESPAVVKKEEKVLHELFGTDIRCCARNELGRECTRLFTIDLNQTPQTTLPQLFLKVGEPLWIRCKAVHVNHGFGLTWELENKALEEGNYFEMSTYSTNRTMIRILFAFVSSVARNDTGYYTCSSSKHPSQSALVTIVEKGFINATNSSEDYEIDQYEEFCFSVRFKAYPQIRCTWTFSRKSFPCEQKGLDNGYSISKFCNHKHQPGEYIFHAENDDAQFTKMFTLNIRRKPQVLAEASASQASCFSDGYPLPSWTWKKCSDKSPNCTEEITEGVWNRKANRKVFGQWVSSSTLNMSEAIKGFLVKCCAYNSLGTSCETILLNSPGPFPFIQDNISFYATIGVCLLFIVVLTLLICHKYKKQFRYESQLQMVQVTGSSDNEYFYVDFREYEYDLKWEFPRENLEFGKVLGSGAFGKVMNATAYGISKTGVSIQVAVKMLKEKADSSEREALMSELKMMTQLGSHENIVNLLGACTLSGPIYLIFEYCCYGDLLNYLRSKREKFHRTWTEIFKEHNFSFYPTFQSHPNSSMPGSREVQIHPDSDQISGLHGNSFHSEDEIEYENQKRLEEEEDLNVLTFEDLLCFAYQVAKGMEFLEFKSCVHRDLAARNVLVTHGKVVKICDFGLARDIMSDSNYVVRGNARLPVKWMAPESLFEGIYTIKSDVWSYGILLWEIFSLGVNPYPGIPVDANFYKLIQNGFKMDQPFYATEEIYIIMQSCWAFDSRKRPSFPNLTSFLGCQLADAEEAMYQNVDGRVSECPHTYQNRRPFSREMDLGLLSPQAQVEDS

Sequence of Epidermal growth factor receptor (P00533 whole entry): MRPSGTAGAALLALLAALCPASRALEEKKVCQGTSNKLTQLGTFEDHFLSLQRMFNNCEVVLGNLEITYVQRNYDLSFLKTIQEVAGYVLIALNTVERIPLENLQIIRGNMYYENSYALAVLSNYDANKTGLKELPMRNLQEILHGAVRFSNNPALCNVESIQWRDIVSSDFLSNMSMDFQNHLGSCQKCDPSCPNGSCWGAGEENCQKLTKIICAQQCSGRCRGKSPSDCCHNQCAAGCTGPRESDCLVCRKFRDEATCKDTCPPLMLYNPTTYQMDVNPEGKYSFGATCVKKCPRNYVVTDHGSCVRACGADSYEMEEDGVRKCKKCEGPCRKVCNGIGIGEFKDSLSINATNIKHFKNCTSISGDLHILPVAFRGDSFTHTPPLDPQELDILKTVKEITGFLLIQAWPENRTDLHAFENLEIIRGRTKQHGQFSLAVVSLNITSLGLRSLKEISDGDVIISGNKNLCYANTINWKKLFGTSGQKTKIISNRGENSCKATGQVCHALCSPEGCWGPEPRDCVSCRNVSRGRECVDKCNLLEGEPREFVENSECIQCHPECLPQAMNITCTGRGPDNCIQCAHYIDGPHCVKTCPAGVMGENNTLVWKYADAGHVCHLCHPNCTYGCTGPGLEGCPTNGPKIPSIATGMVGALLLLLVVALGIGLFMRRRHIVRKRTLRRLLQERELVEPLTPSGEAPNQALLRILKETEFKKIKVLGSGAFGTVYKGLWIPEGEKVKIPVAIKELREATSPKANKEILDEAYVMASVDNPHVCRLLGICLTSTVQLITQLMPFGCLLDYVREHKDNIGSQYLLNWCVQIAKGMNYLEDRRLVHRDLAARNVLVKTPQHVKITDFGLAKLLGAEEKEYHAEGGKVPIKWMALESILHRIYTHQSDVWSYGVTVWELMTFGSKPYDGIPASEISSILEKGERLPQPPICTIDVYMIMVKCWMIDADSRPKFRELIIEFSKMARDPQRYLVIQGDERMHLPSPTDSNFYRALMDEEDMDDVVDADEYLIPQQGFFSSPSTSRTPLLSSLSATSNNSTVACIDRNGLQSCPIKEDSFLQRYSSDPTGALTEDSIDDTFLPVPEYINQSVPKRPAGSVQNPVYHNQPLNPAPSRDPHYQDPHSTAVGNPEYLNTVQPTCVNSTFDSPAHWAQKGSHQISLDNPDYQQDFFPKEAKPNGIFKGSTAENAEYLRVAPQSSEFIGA
Sequence of Tyrosine-protein kinase Yes (Homo sapiens) (P07947 2-543 limits assumed): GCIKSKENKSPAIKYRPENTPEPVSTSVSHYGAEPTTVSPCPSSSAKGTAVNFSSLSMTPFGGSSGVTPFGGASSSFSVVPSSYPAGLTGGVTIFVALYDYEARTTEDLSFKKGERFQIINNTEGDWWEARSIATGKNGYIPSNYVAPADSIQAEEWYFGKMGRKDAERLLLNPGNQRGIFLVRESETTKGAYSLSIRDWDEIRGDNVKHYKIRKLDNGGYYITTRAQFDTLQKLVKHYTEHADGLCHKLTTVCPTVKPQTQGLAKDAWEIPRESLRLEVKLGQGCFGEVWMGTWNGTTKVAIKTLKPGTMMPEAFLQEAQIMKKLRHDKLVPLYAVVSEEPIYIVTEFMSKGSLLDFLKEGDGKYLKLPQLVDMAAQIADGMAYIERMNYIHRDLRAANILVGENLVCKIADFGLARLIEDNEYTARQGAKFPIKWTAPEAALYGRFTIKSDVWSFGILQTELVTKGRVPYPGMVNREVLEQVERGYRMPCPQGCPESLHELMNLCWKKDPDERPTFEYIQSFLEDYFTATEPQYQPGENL
Sequence of Fibroblast growth factor receptor 3 (P22607 23-806 limits assumed): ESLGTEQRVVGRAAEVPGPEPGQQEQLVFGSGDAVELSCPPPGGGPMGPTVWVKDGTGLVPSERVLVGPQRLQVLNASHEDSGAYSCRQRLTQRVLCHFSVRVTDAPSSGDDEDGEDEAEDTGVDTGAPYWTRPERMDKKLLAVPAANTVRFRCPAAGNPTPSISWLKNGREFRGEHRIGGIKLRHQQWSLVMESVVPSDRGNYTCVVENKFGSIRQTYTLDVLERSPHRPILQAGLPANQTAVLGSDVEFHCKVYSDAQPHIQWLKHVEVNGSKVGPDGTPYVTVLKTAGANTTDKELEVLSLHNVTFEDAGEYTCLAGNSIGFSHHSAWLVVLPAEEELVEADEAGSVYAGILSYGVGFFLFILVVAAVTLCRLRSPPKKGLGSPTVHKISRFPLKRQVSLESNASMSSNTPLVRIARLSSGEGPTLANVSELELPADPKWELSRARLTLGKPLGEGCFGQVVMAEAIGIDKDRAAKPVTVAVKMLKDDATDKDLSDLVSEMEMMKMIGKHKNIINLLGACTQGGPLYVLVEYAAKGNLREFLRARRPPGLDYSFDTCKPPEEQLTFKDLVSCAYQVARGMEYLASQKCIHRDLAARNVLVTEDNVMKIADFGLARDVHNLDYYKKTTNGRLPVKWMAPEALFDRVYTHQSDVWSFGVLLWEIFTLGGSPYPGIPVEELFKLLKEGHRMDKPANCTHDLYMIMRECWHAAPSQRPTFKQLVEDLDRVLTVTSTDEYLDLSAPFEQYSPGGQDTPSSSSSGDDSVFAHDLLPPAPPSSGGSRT
Sequence of Receptor tyrosine-protein kinase erbB-4 (Q15303 whole entry): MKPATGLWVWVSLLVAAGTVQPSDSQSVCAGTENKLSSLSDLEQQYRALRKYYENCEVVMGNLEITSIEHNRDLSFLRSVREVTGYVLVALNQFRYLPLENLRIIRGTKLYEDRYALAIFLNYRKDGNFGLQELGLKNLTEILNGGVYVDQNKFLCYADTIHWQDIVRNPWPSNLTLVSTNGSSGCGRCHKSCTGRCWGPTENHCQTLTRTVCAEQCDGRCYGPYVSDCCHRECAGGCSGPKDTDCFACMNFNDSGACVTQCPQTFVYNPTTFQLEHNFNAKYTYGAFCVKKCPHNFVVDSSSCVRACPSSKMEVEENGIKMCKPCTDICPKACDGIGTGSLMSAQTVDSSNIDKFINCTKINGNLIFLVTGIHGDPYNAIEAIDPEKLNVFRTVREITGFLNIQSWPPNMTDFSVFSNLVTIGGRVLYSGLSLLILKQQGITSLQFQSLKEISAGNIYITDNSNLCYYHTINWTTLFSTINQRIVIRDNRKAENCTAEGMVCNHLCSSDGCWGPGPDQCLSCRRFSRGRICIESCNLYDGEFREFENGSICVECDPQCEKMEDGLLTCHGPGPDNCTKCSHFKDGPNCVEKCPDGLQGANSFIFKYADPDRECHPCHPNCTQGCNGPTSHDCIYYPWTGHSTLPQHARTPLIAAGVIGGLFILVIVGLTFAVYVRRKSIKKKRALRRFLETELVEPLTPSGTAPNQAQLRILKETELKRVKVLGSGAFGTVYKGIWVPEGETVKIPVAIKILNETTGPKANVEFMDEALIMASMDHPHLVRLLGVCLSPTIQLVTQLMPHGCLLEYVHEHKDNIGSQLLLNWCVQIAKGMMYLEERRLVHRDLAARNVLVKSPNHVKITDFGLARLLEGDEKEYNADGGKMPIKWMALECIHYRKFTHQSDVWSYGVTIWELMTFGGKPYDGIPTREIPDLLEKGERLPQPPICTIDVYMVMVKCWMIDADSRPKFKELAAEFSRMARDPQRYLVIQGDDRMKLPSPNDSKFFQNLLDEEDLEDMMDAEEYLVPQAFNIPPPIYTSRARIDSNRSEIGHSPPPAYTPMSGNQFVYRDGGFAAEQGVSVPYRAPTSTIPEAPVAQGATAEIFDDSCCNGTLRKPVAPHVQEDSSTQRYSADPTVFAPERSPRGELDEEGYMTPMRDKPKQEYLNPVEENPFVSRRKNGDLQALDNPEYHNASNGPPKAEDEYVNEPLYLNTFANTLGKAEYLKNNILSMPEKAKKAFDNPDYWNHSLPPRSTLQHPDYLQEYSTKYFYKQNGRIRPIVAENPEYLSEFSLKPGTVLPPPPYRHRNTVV

`COc1cc(Nc2nc(C)cc(-c3cnn4nc(OC)ccc34)n2)cc(C(F)(F)F)c1` gave a % of control [1] of 86%.

For `O=C(NOC[C@H](O)CO)c1ccc(F)c(F)c1Nc1ccc(I)cc1F`, the % of control [2] was 100% and the % of control [3] was 100%.

Compound `Nc1cnc(N2CCc3cc(S(=O)(=O)Nc4c(F)cc(Cl)cc4F)cc(N4CCCC4=O)c32)nc1` [TP-020n] has a % of control [4] of 79% and a % of control [5] of 100%.

In the case of `CCC(=O)N1CC[C@H](Nc2ncnc3c2CN(c2cnc(OC)c(C(F)(F)F)c2)CC3)C1` [LENIOLISIB], the IC50 [6] is reported as greater than 10 µM.

`CCN(CC)CCCCNc1ncc2cc(-c3cc(OC)cc(OC)c3)c(NC(=O)NC(C)(C)C)nc2n1` was tested, and the % of control [7] was 100%.

`CCC(=O)N1CCN(c2ccc(-n3c(=O)ccc4cnc5ccc(-c6cnc7ccccc7c6)cc5c43)cc2C(F)(F)F)CC1` gave a % of control [8] of 42%.

`CN(C)CCOc1ccc(-c2nc(-c3ccncc3)c(-c3ccc4c(c3)CC/C4=N\O)[nH]2)cc1` showed a % of control [9] of 3.8%.

For `Cc1cc(F)c(C(=O)Nc2cccc(-c3nncn3C(C)C)n2)cc1-n1cnc(C2CC2)c1`, the % of control [10] was 100%.
